Data on 10 compounds can be found in EP0116208A1, “Mitomycin analogues” (KYOWA HAKKO KOGYO CO., LTD., priority 1982, dated 1984).

Each structure is given as a SMILES string.

Data set [1] has as its system Sarcoma 180 solid tumour. Put plainly: Effect on Sarcoma 180 solid tumour (ED50, chemotherapeutic index). Format: in vivo, ddy mice. Conditions: Anti-tumour activity; ratio of LD50 to ED50; ED50 = dose giving T/C 0.5 of Sarcoma 180 solid tumour volume, intraperitoneal injection. The source says: (1) Effect on Sarcoma 180 solid tumour:
5 x 10^6 cells of Sarcoma 180 solid tumour were innoculated into the abdominal cavities of groups of ddy mice, each group consisting of 5 mice. 7..days after this, on each occasion, the tumour cells were collected from the ascites of the mouse. The cells were washed with a sterilized physiological sodium chloride solution and used to prepare a cell suspension containing 5 x 10^7 cells per ml of a sterilized physiological solution of sodium chloride, of which 0.1 ml was injected under the skin of the right armpit of a ddy male mouse (body weight 20 ±2 g). A test compound was dissolved in a physiological solution of sodium chloride or a similar solution containing Tween 80 (a surfactant commercially available from Atlas Chemical Industries, Inc., U.S.A.). 24 hours after the implantation of the tumours cells, the test compound (0.1 to 0.2 ml) was injected into the test mice intraperitoneally. In order to determine the antitumour activity of the test compound, 7 days after the implantation of the tumour cells, on each occasion, the major axis (a) and minor axis (b) of the tumour were measured to calculate the volume of the tumour ['a' x ^Ib'/2]. The anti-tumour effect was evaluated by the ratio of the tumour volume in the test animals (T) to the corresponding volume of the control (untreated) animals (C).
(2) Determination of ED50.
A dose capable of reducing the volume of a Sarcoma 180 solid tumour to 50% of the corresponding volume of the untreated group on average was defined as the ED50. T/C ratios and the doses were respectively plotted on the ordinate in arithmetic scale and abscissa in logarithmic scale on graph paper, from which the relationship between the doses and the T/C ratios was calculated as a straight line by the least square method. From the straight tropic line thus-obtained, the dose corresponding to a T/C of 0.5 was determined.

The nature of data set [2]: Acute toxicity (LD50). Also on record: species or system mice. The following applies: mouse, in vivo; death ratio observed for 14 days; Behrens-Korber's method. The source says: (3) Acute toxicity (LD50):
On each occasion, the test compound was given to the test animal.

Data set [3] in a line: Effect upon the number of peripheral leukocytes (WBC 4000). Format: in vivo. The following applies: mouse, Toxicity against bone marrow, WBC 4000 = dose giving 4000 leukocytes/mm3, Sarcoma 180 bearing mice, read-out: WBC 4000/ ED50. As to the method:
(5) Effect upon the number of peripheral leukocytes:
5 x 10^6 cells of Sarcoma 180 solid tumour were implanted under the skin of each mouse at the right armpit. 24 hours after this, venous blood (0.02 ml) was collected from the eyepit of the mouse and suspended in Cell-Kit Seven solution (10 ml; commercially available from Toa Iryo Denshi K.K., Japan).
To the suspension, a drop of saponin solution was added to dissolve the red cells and the number of leukocytes were counted using a microcell counter. The number of leukocytes and the corresponding dose were respectively plotted on the ordinate in arithmetic scale and on the abscissa in logarithmic scale on graph paper to investigate the relationship between dosage and the number of peripherical leukocytes. A dose capable of giving 4000 leukocytes/mm3 was defined as WBC 4000, which corresponded to about 1/2 the number of peripherical leukocytes in normal mice.
The greater the ratio of WBC 4000 to ED50 the smaller the decrease in the number of peripherical leukocytes viz. the lower the toxicity against bone marrow in the area of the effective dose.

As usually defined, the LD50 is the dose expected to kill half of the subjects tested.

With `CC1=C(NCCSSCCNC2=C(C)C(=O)C3=C(C2=O)C(COC(N)=O)C2(O)C4C(CN32)N4C)C(=O)C2=C(C1=O)N1CC3C(N3C)C1(O)C2COC(N)=O` (stereo not drawn) [a, 7-N,7'-N'-dithiodiethylenedimitomycin D], in data set [1], the C.I. is greater than 2.99. Besides, the LD50 at 336 h in data set [2] is greater than 60 mg/kg. The selectivity ratio in data set [3] was determined as 2.29.

Turning to `CC1=C(NCCSSCCN)C(=O)C2=C(C1=O)N1CC3C(N3C)C1(O)C2COC(N)=O` (stereo not drawn) [c, 7-N-[2-(2-aminoethyl)dithioethyl]mitomycin D], the C.I. in data set [1] is on record as 3.11. The median lethal dose (LD50) at 336 h in data set [2] turned out to be 74.3 mg/kg. The selectivity ratio in data set [3] stood at 1.87.

For `CCSSCCNC1=C(C)C(=O)C2=C(C1=O)C(COC(N)=O)C1(OC)C3NC3CN21` (stereo not drawn) [g, 7-N-(2-ethyldithioethyl)mitomycin C], in data set [1], the C.I. came out at 1.64. Besides, the LD50 at 336 h in data set [2] stood at 5.4 mg/kg. For the same compound, the selectivity ratio in data set [3] came out at 3.76.

As for `COC12C(COC(N)=O)C3=C(C(=O)C(C)=C(NCCSSCCO)C3=O)N1CC1NC12` (stereo not drawn) [i, 7-N-[2-(2-hydroxyethyl)dithioethyl]mitomycin C], the C.I. in data set [1] is given as no more than 2.12. In addition, the LD50 at 336 h in data set [2] was no more than 11.2 mg/kg. For the same compound, the selectivity ratio in data set [3] is 2.13.

For the compound `COC12C(COC(N)=O)C3=C(C(=O)C(C)=C(NC4CSSC4)C3=O)N1CC1NC12` (stereo not drawn) [j, 7-N-(1,2-dithiolan-4-yl)mitomycin C], the LD50 at 336 h in data set [2] amounted to 5.25 mg/kg.

Turning to `CC1=C(NC2CSSC2)C(=O)C2=C(C1=O)N1CC3C(N3C)C1(O)C2COC(N)=O` (stereo not drawn) [l, 7-N-(1,2-dithiolan-4-yl)mitomycin D], the LD50 at 336 h in data set [2] came out at 35.6 mg/kg.

Consider `COC12C(COC(N)=O)C3=C(C(=O)C(C)=C(NCCSSCC(O)CO)C3=O)N1CC1NC12` (stereo not drawn) [o, 7-N-[2-(2,3-dihydroxypropyl)dithioethyl]mitomycin C], for which the LD50 at 336 h in data set [2] is 22.5 mg/kg.

On to `COC12C(COC(N)=O)C3=C(C(=O)C(C)=C(NCCSSCCN)C3=O)N1CC1NC12` (stereo not drawn) [r, 7-N-[2-(2-aminoethyl)dithioethyl)mitomycin C], for which the C.I. in data set [1] was 0.73. Besides, in data set [2], the LD50 at 336 h came to 13.5 mg/kg. Moreover, the selectivity ratio in data set [3] was 1.25.

For the compound `COC12C(COC(N)=O)C3=C(C(=O)C(C)=C(NCCSSCCNC4=C(C)C(=O)C5=C(C4=O)C(COC(N)=O)C4(OC)C6NC6CN54)C3=O)N1CC1NC12` (stereo not drawn) [s, 7-N-, 7'-N'-dithiodiethylenedimitomycin C], the C.I. in data set [1] is on record as 2.98. Further, the LD50 at 336 h in data set [2] turned out to be 18.8 mg/kg. Besides, the selectivity ratio in data set [3] was determined as 2.63.

For the compound `COC12C(COC(N)=O)C3=C(C(=O)C(C)=C(NCCSSCCNC4=C(C)C(=O)C5=C(C4=O)C(COC(N)=O)C4(OC)C6C(CN54)N6C)C3=O)N1CC1C2N1C` (stereo not drawn) [t, 7-N, 7'-N'-dithiodiethylenediporfiromycin], the C.I. in data set [1] came to 2.15. Further, the LD50 at 336 h in data set [2] is 33.8 mg/kg. Further, the selectivity ratio in data set [3] worked out at 1.34.
